Results reported in article PMC9518264, “Design and synthesis of novel quinazolinone-based derivatives as EGFR inhibitors with antitumor activity” (Journal of Enzyme Inhibition and Medicinal Chemistry, 2022).

Assays:
[1] = system: CCRF-CEM; assay: cells; type: cell-based; conditions: Homo sapiens, 10 μM, read-out: growth inhibition % (GI%)
[2] = system: K-562; assay: cells; type: cell-based; conditions: Homo sapiens, K562; K-562; 10 μM; read-out: growth inhibition % (GI%)
[3] = system: RPMI-8226; assay: cells; type: cell-based; conditions: Homo sapiens; RPMI-8226; 10 μM; read-out: growth inhibition % (GI%)
[4] = system: SR; assay: cells; type: cell-based; conditions: Homo sapiens, 10 μM, read-out: growth inhibition % (GI%)
[5] = system: EKVX; assay: cells; type: cell-based; conditions: Homo sapiens, 10 μM, read-out: growth inhibition % (GI%)
[6] = system: HOP-62; assay: cells; type: cell-based; conditions: Homo sapiens; HOP-62; 10 μM; read-out: growth inhibition % (GI%)
[7] = system: HOP-92; assay: cells; type: cell-based; conditions: Homo sapiens; HOP-92; 10 μM; read-out: growth inhibition % (GI%)
[8] = system: NCI-H226; assay: cells; type: cell-based; conditions: Homo sapiens; NCI-H226; 10 μM; read-out: growth inhibition % (GI%)
[9] = system: NCI-H322M; assay: cells; type: cell-based; conditions: Homo sapiens, 10 μM, read-out: growth inhibition % (GI%)
[10] = system: NCI-H460; assay: cells; type: cell-based; conditions: Homo sapiens; NCI-H460; 10 μM; read-out: growth inhibition % (GI%)
[11] = system: NCI-H522; assay: cells; type: cell-based; conditions: Homo sapiens; NCI-H522; 10 μM; read-out: growth inhibition % (GI%)
[12] = system: COLO-205; assay: cells; type: cell-based; conditions: Homo sapiens; COLO-205; 10 μM; read-out: growth inhibition % (GI%)
[13] = system: HCC-2998; assay: cells; type: cell-based; conditions: Homo sapiens; HCC-2998; 10 μM; read-out: growth inhibition % (GI%)
[14] = system: HCT-116; assay: cells; type: cell-based; conditions: Homo sapiens; HCT-116; 10 μM; read-out: growth inhibition % (GI%)
[15] = system: HT29; assay: cells; type: cell-based; conditions: Homo sapiens, HT-29; HT29; 10 μM; read-out: growth inhibition % (GI%)
[16] = system: SW-620; assay: cells; type: cell-based; conditions: Homo sapiens; SW-620; 10 μM; read-out: growth inhibition % (GI%)
[17] = system: SF-268; assay: cells; type: cell-based; conditions: Homo sapiens; SF-268; 10 μM; read-out: growth inhibition % (GI%)
[18] = system: SF-539; assay: cells; type: cell-based; conditions: Homo sapiens; SF-539; 10 μM; read-out: growth inhibition % (GI%)
[19] = system: SNB-19; assay: cells; type: cell-based; conditions: Homo sapiens; SNB-19; 10 μM; read-out: growth inhibition % (GI%)
[20] = system: SNB-75; assay: cells; type: cell-based; conditions: Homo sapiens; SNB-75; 10 μM; read-out: growth inhibition % (GI%)
[21] = system: LOX IMIV; assay: cells; type: cell-based; conditions: Homo sapiens, 60 cell; LOX IMIV; 10 μM; read-out: growth inhibition % (GI%)
[22] = system: MDA-MB-435; assay: cells; type: cell-based; conditions: Homo sapiens; MDA-MB-435; 10 μM; read-out: growth inhibition % (GI%)
[23] = system: SK-MEL-2; assay: cells; type: cell-based; conditions: Homo sapiens; SK-MEL-2; 10 μM; read-out: growth inhibition % (GI%)
[24] = system: SK-MEL-28; assay: cells; type: cell-based; conditions: Homo sapiens; SK-MEL-28; 10 μM; read-out: growth inhibition % (GI%)
[25] = system: SK-MEL-5; assay: cells; type: cell-based; conditions: Homo sapiens; SK-MEL-5; 10 μM; read-out: growth inhibition % (GI%)
[26] = system: UACC-257; assay: cells; type: cell-based; conditions: Homo sapiens; UACC-257; 10 μM; read-out: growth inhibition % (GI%)
[27] = system: UACC-62; assay: cells; type: cell-based; conditions: Homo sapiens; UACC-62; 10 μM; read-out: growth inhibition % (GI%)
[28] = system: IGROV1; assay: cells; type: cell-based; conditions: Homo sapiens, IGROV-1; IGROV1; 10 μM; read-out: growth inhibition % (GI%)
[29] = system: OVCAR-4; assay: cells; type: cell-based; conditions: Homo sapiens; OVCAR-4; 10 μM; read-out: growth inhibition % (GI%)
[30] = system: OVCAR-5; assay: cells; type: cell-based; conditions: Homo sapiens; OVCAR-5; 10 μM; read-out: growth inhibition % (GI%)
[31] = system: OVCAR-8; assay: cells; type: cell-based; conditions: Homo sapiens; OVCAR-8; 10 μM; read-out: growth inhibition % (GI%)
[32] = system: NCI/ADR-RES; assay: cells; type: cell-based; conditions: Homo sapiens, 10 μM, read-out: growth inhibition % (GI%)
[33] = system: SK-OV-3; assay: cells; type: cell-based; conditions: Homo sapiens; SK-OV-3; 10 μM; read-out: growth inhibition % (GI%)
[34] = system: 786-0; assay: cells; type: cell-based; conditions: Homo sapiens; 786-0; 10 μM; read-out: growth inhibition % (GI%)
[35] = system: A498; assay: cells; type: cell-based; conditions: Homo sapiens; A498; 10 μM; read-out: growth inhibition % (GI%)
[36] = system: ACHN; assay: cells; type: cell-based; conditions: Homo sapiens, 10 μM, read-out: growth inhibition % (GI%)
[37] = system: SN12C; assay: cells; type: cell-based; conditions: Homo sapiens, 10 μM, read-out: growth inhibition % (GI%)
[38] = system: TK-10; assay: cells; type: cell-based; conditions: Homo sapiens; TK-10; 10 μM; read-out: growth inhibition % (GI%)
[39] = system: UO-31; assay: cells; type: cell-based; conditions: Homo sapiens; UO-31; 10 μM; read-out: growth inhibition % (GI%)
[40] = system: PC-3; assay: cells; type: cell-based; conditions: Homo sapiens; PC-3; 10 μM; read-out: growth inhibition % (GI%)
[41] = system: MDA-MB-231/ATCC; assay: NCI 60 cell line antiproliferative screening (SRB), Breast cancer; type: cell-based; conditions: Homo sapiens, MDA-MB-231, read-out: growth inhibition % (GI%)
[42] = system: BT-549; assay: cells; type: cell-based; conditions: Homo sapiens; BT-549; 10 μM; read-out: growth inhibition % (GI%)
[43] = system: T-47D; assay: cells; type: cell-based; conditions: Homo sapiens, T47D; T-47D; 10 μM; read-out: growth inhibition % (GI%)
[44] = system: panel of 60 tumour cell lines; assay: NCI 60 cell line antiproliferative screening (SRB), whole panel or subpanels (means, ranges, words); type: cell-based, human
[45] = system: MDA-MB-468; assay: NCI 60 cell line antiproliferative screening (SRB), Breast cancer; conditions: Homo sapiens, MDA-MB-468, read-out: growth inhibition % (GI%)
[46] = system: OVCAR-3; assay: NCI 60 cell line antiproliferative screening (SRB), Ovarian cancer; conditions: Homo sapiens, OVCAR-3, read-out: growth inhibition % (GI%)

CN1CCN(c2ccc(C=NNC(=O)CSc3nc4ccccc4c(=O)n3-c3ccc(Cl)cc3)cc2)CC1 [6l, 2-((3–(4-chlorophenyl)-4-oxo-3,4-dihydroquinazolin-2-yl)thio)-N'-(4–(4-methylpiperazin-1-yl)benzylidene)acetohydrazide]
inhibition at 10 µM [1]: < 15%
inhibition at 10 µM [2]: < 15%
inhibition at 10 µM [3]: < 15%
inhibition at 10 µM [4]: < 15%
inhibition at 10 µM [5]: < 15%
inhibition at 10 µM [6]: < 15%
inhibition at 10 µM [7]: < 15%
inhibition at 10 µM [8]: < 15%
inhibition at 10 µM [9]: < 15%
inhibition at 10 µM [10]: < 15%
inhibition at 10 µM [11]: < 15%
inhibition at 10 µM [12]: < 15%
inhibition at 10 µM [13]: < 15%
inhibition at 10 µM [14]: < 15%
inhibition at 10 µM [15]: < 15%
inhibition at 10 µM [16]: < 15%
inhibition at 10 µM [17]: < 15%
inhibition at 10 µM [18]: < 15%
inhibition at 10 µM [19]: < 15%
inhibition at 10 µM [20]: < 15%
inhibition at 10 µM [21]: 15.2%
inhibition at 10 µM [22]: < 15%
inhibition at 10 µM [23]: < 15%
inhibition at 10 µM [24]: < 15%
inhibition at 10 µM [25]: < 15%
inhibition at 10 µM [26]: < 15%
inhibition at 10 µM [27]: < 15%
inhibition at 10 µM [28]: < 15%
inhibition at 10 µM [29]: < 15%
inhibition at 10 µM [30]: < 15%
inhibition at 10 µM [31]: < 15%
inhibition at 10 µM [32]: < 15%
inhibition at 10 µM [33]: < 15%
inhibition at 10 µM [34]: < 15%
inhibition at 10 µM [35]: 32.6%
inhibition at 10 µM [36]: < 15%
inhibition at 10 µM [37]: < 15%
inhibition at 10 µM [38]: < 15%
inhibition at 10 µM [39]: < 15%
inhibition at 10 µM [40]: < 15%
inhibition at 10 µM [41]: < 15%
inhibition at 10 µM [42]: < 15%
inhibition at 10 µM [43]: < 15%
antiproliferative activity against all tested cell lines ([44]; 10 μM single dose): did not show activity
inhibition at 10 µM ([44]; Homo sapiens, 60 cell, mean over the cell line panel, 10 μM, read-out: Mean growth inhibition % (mean GI%)): < 0%
inhibition at 10 µM [45]: < 15%
inhibition at 10 µM [46]: < 15%
